Target: T1, α2A-adrenoceptors (Homo sapiens, UniProt P08913)
T1 construct: Human cerebral cortex obtained at post-mortem; from tissue; host or cells: human post-mortem cerebral cortex membranes
T1 sequence (P08913 1-465): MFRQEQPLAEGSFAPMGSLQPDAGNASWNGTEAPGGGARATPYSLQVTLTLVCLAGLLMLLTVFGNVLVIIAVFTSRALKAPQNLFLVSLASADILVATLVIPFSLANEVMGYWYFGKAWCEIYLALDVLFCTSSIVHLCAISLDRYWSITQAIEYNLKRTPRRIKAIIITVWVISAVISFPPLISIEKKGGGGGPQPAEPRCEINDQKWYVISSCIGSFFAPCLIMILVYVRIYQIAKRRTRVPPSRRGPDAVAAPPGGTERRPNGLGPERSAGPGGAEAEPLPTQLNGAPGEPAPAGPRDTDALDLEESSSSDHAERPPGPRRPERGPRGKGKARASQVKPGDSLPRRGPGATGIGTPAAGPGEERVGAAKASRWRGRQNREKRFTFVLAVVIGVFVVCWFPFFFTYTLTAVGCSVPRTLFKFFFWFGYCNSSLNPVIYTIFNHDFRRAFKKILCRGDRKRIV
Test: inhibition of tritiated RX 821002 binding to α2A-adrenoceptors in human cerebral cortex
Settings: at 10^-6 M, tritiated RX 821002, read-out: % displacement of radio ligand, α2A
Procedure: Human cerebral cortex obtained at post-mortem was homogenised in ice-cold 0.25M sucrose (1:30 w/v) and centrifuged at 1,000 g at 4° C. for 12 minutes. The supernatant was stored on ice and the pellet was rehomogenised in 0.25M sucrose (1:15 w/v) and centrifuged at 850 g at 4° C. for 12 minutes. Combined supernatants were diluted with 5mM Tris-HCl (pH 7.5) containing 5 mM ethylenediamine tetraacetic acid (EDTA), readjusted to pH 7.5 (at 25° C.) with 1M sodium hydroxide to 1:80 w/v, and centrifuged at 11,000 g at 4° C. for 10 minutes. The resulting pellet was resuspended in 50 mM Tris-HCl (pH 7.5) containing 5.68 mM L-ascorbic acid and 0.5 mM EDTA, readjusted to pH 7.5 (at 25° C.) with 1 M sodium hydroxide to 1:80 w/v, and centrifuged at 11,000 g for 10 minutes. The pellet was stored at -80° C. On the day of the assay the pellet was thawed, resuspended in 50 mM Tris-HCl (pH 7.5) containing 5.68 mM L-ascorbic acid and 5 mM EDTA to 1:80 w/v and centrifuged at 11,000 g for 10 minutes. The final pellet was resuspended in 50 mM Tris-HCl (pH 7.5) containing 5.68 mM L-ascorbic acid and 5 mM EDTA (equivalent to 25 mg wet weight of tissue/ml).
Aliquots (400 μl; equivalent to 10 mg wet weight of tissue/tube) of this suspension were added to tubes containing the ligand (50 μl; 0.2 nM) and distilled water (50 μl; total binding) or phentolamine (50 μl; 50 μM; non-specific binding) or test compound (50 μl; at a single concentration of 10^-6 M or at 10 concentrations ranging from 10^-11 -10^-3 M). The ligand was tritiated RX 821002 (2-(2-methoxy-1,4-[6,7(n)-^3 H]benzodioxan-2-yl)-2-imidazoline) and the mixture was incubated at 0° C. for 75 minutes before the incubation was terminated by rapid filtration.
The filters were washed with ice-cold Tris-HCl buffer and dried. The filters were punched out into vials, scintillation fluid added and radioactivity determined by liquid scintillation counting. The percentage displacement of specific binding of the tritiated ligand was calculated for the single concentration (10^-6 M) of test compound. Displacement curves were then produced for those compounds which displaced ≥50% of specific binding of the tritiated ligand at 10^-6 M using a range of concentrations of the compound. The concentration which gave 50% inhibition of specific binding (IC50)was obtained from the curve. The inhibition coefficient Ki was then calculated using the formula [formula] in which [ligand] is the concentration of the tritiated ligand used and KD is the equilibrium dissociation constant for the ligand.

Row | inhibition at 1 µM [%] | SMILES
1 | 98 | O=C(NCC1CCN(C[C@H]2COc3ccc(Cl)cc3O2)CC1)c1cccc2cccnc12 [Example 23, (S)-N-{[1-(7-chloro-1,4-benzodioxan-2-ylmethyl)-4-piperidyl]methyl}quinoline-8-carboxamide]
2 | 99 | O=C(NCC1CCN(CC2COc3ccccc3O2)CC1)c1cccc2cccnc12 (stereo not drawn) [Example 8, N-{[1-(1,4-benzodioxan-2-ylmethyl)-4-piperidyl]methyl}quinoline-8-carboxamide]
3 | 99 | Cc1ncccc1C(=O)NCC1CCN(C[C@H]2COc3cccc(Cl)c3O2)CC1 [Example 9, (S)-N-{[1-(8-chloro-1,4-benzodioxan-2-ylmethyl)-4-piperidyl]methyl}-2-methylpyridine-3-carboxamide]
4 | 99 | O=C(NCC1CCN(C[C@H]2COc3ccc(Cl)cc3O2)CC1)c1ccccn1 [Example 12, (S)-N-{[1-(7-chloro-1,4-benzodioxan-2-ylmethyl)-4-piperidyl]methyl}pyridine-2-carboxamide]
5 | 100 | Nc1ncccc1C(=O)NCC1CCN(CC2COc3ccc(F)cc3O2)CC1 (stereo not drawn) [Example 10, 2-amino-N-{[1-(7-fluoro-1,4-benzodioxan-2-ylmethyl)-4-piperidyl]methyl}pyridine-3-carboxamide]
6 | 100 | Nc1ccsc1C(=O)NCC1CCN(CC2COc3ccccc3O2)CC1 (stereo not drawn) [Example 16, 3-amino-N-{[1-(1,4-benzodioxan-2-ylmethyl)-4-piperidyl]methyl}thiophene-2-carboxamide]
7 | 99 | Nc1ccsc1C(=O)NCC1CCN(C[C@H]2COc3ccc(Cl)cc3O2)CC1 [Example 17, (S)-3-amino-N-{[1-(7-chloro-1,4-benzodioxan-2-ylmethyl)-4-piperidyl]methyl}thiophene-2-carboxamide]
8 | 99 | O=C(NCC1CCN(C[C@H]2COc3ccc(Cl)cc3O2)CC1)c1cccnc1 [Example 22, (S)-N-{[1-(7-chloro-1,4-benzodioxan-2-ylmethyl)-4-piperidyl]methyl}pyridine-3-carboxamide]
9 | 100 | Nc1ncccc1C(=O)NCC1CCN(C[C@H]2COc3ccccc3O2)CC1 [Example 15, (S)-2-amino-N-{[1-(1,4-benzodioxan-2-ylmethyl)-4-piperidyl]methyl}pyridine-3-carboxamide]
10 | 101 | Nc1ncccc1C(=O)NCC1CCN(C[C@H]2COc3cccc(C(F)(F)F)c3O2)CC1 [Example 20, (S)-2-amino-N-{[1-(8-trifluoromethyl-1,4-benzodioxan-2-ylmethyl)-4-piperidyl]methyl}pyridine-3-carboxamide]
11 | 99 | COc1cccc2c1OC(CN1CCC(CNC(=O)c3cccnc3N)CC1)CO2 (stereo not drawn) [Example 11, 2-amino-N-{[1-(8-methoxy-1,4-benzodioxan-2-ylmethyl)-4-piperidyl]methyl}pyridine-3-carboxamide]
12 | 100 | O=C(NCC1CCN(CC2COc3ccccc3O2)CC1)c1ccccn1 (stereo not drawn) [Example 6, N-{[1-(1,4-benzodioxan-2-ylmethyl)-4-piperidyl]methyl}pyridine-2-carboxamide]
13 | 98 | Cc1ccc2c(c1)O[C@@H](CN1CCC(CNC(=O)c3cccnc3N)CC1)CO2 [Example 5, (S)-2-amino-N-{[1-(7-methyl-1,4-benzodioxan-2-ylmethyl)-4-piperidyl]methyl}pyridine-3-carboxamide]
14 | 100 | Cc1cccc2c1O[C@@H](CN1CCC(CNC(=O)c3cccnc3N)CC1)CO2 [Example 13, (S)-2-amino-N-{[1-(8-methyl-1,4-benzodioxan-2-ylmethyl)-4-piperidyl]methyl}pyridine-3-carboxamide]

Same assay, conditions: tritiated RX 821002 0.2 nM, 0° C., 75 min

Row | Ki [nM] | SMILES
15 | 2.8 | COc1ccc2c(c1)O[C@@H](CN1CCC(CNC(=O)c3cccnc3N)CC1)CO2 [Example 7, (S)-2-amino-N{[1-(7-methoxy-1,4-benzodioxan-2-ylmethyl)-4-piperidyl]methyl}-pyridine-3-carboxamide]

Source: US5935973A, “Heterocyclcarboxamide derivatives and their use as therapeutic agents” (Knoll Aktiengesellschaft, priority 1995, dated 1999)
